Legend:
Type in all cases: biochemical
HDAC8 = target: T1, HDAC8 (Homo sapiens, UniProt Q9BY41); experiment: HDAC8 fluorometric enzyme inhibition assay, purified recombinant enzyme, 10-point dose-response; settings: for IC50: Table 1, purified recombinant HDAC8 10 nM, mean of three independent experiments, >35 µM = weak inhibitor; for IC50 (HDAC4)/IC50 (HDAC8): selectivity ratio HDAC8 over HDAC4
T1 construct: made in house
T1 sequence (Q9BY41 1-377): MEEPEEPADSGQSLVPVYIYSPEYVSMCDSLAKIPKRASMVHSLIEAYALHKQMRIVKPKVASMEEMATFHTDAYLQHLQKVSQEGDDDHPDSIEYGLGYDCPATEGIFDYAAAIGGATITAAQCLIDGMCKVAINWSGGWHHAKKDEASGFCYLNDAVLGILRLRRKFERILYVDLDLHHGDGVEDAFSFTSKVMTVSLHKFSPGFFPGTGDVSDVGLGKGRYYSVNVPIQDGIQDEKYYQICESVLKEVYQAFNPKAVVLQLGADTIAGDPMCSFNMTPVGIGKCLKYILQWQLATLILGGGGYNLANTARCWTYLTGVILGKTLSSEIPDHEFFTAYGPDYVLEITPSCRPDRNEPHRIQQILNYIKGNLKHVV
Protocol: (§1) Therefore, the first stage of biological evaluation focused on determining inhibitory concentration (IC50) values of the squaric acid derivatives against HDAC8 and HDAC4 using purified recombinant enzymes. Enzymatic inhibition was quantified using 10‐point dose–response assays, from which IC50 values were calculated (Table 1). HDAC8 and HDAC4 were employed at concentrations of 10 nM and 1 nM, respectively, while other zinc‐dependent HDAC isoenzymes were used at approximate concentrations of ∼1 nM, reflecting the purity of the commercially available preparations. […]
(§2) 1.3.1 HDAC Assay General Inform ation
(§3) The activity of HDAC1, HDAC4, HDAC6, HDAC8, and HDAC11 was determined using a fluorometric assay in black half-area 96-well microplates (Greiner Bio -One , Germany). HDAC1 (#50051) and HDAC 6 (#50006) were purchased from BPS Bioscience.
(§4) HDAC4, HDAC8 and HDAC11 were produced in house as previously described.7- 9 The enzymes were pre-incubated with serial dilutions of the compounds for 1 hour at 30 °C in either assay buffer (25 mM Tris-HCl, 75 mM KCl and 0.001% (v/v) Pluronic F -127, pH 8.0) or MAL buffer (137 m M NaCl, 50 mM Tris-HCl, 2.7 mM KCl, 1 mM MgCl₂, 0 .5 mg/ml bovine serum albumin (BSA), pH 8.0b) for HDAC11. The enzyme reaction was initiated by the addition of the following substrates: 20 µM Boc-L ys(T FA) -AMC for HDAC4 and HDAC8; 80 µM Boc-L ys(T FA) -AMC for HDAC11; and 50 µM Boc -Lys(Ac)-AMC for HDAC1 and HDAC6. After an incubation period of 60 minutes, the reaction was terminated by the addition of 1.7 µM 9,9,9-trifluoro-8-oxo-N -phenyl -nonanamide (SATFMK) for […]
(§5) HDAC6, and 1 µM 1,1-dimethyl -2-[5-(trifluoromethyl)pyrazin-2-yl]isoindoline -4-carbohydroxamic acid (FT895) for HDAC11. The deacetylated substrate was then cleaved into fluorescent 7-amino -4- methylcoumarin (AMC) by the addition of 0.42 mg/mL trypsin.
(§6) Measurements were performed using a PHERAstar FS fluorescence microplate reader (BMG LABTECH) with excitation at 360 nm and emission at 460 nm. The normalised enzyme activities were plotted against the respective ligand concentration and fitted with a four-parameter logistic function using GraphPad Prism 6 software.

HDAC4 = target: T2, HDAC4 (Homo sapiens, UniProt P56524); experiment: HDAC4 fluorometric enzyme inhibition assay, purified recombinant enzyme, 10-point dose-response; settings: Table 1; purified recombinant HDAC4 1 nM; mean of three independent experiments; >35 µM = weak inhibitor
T2 construct: made in house
Protocol: as §1, §2, §3, §4, §5, §6

HDAC1 = target: T3, HDAC1 (Homo sapiens, UniProt Q13547); experiment: HDAC1 fluorometric enzyme inhibition assay, purified enzyme; settings: Table 2; purified enzyme ~1 nM
T3 construct: purchased BPS Bioscience 50051
Protocol: as §1, §2, §3, §4, §5, §6

HDAC6 = target: T4, HDAC6 (Homo sapiens, UniProt Q9UBN7); experiment: HDAC6 fluorometric enzyme inhibition assay, purified enzyme; settings: Table 2; purified enzyme ~1 nM
T4 construct: purchased BPS Bioscience 50006
T4 sequence (Q9UBN7 1-1215): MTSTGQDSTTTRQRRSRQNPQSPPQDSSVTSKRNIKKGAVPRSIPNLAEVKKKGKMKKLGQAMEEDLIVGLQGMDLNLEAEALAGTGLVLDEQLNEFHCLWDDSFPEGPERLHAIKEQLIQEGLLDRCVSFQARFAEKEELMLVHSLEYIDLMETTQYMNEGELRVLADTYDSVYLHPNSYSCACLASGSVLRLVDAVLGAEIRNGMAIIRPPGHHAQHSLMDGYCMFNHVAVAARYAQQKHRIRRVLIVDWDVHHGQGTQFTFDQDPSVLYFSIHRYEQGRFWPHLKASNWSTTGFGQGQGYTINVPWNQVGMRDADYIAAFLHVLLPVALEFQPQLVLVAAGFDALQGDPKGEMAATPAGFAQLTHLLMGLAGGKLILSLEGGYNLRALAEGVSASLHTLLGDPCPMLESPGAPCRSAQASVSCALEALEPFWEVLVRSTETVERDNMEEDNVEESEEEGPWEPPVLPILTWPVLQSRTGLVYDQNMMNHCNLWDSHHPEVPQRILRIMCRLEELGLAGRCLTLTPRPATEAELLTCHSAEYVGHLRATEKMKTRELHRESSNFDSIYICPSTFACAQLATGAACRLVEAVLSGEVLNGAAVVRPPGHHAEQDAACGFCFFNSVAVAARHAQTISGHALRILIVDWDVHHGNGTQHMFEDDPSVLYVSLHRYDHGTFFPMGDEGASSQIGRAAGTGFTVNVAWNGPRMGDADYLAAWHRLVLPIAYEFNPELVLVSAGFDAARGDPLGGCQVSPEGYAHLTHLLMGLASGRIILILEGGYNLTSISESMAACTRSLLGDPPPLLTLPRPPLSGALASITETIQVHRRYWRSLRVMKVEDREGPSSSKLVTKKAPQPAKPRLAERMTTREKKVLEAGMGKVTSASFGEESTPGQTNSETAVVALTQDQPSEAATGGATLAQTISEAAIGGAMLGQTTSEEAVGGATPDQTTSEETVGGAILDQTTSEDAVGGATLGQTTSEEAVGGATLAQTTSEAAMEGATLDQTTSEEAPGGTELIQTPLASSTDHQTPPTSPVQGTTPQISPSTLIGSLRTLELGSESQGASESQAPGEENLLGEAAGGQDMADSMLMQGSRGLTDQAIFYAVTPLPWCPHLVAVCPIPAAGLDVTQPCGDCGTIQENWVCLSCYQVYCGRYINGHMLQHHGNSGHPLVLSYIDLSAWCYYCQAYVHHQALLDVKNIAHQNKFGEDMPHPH
Protocol: as §1, §2, §3, §4, §5, §6

HDAC11 = target: T5, HDAC11 (Homo sapiens, UniProt Q96DB2); experiment: HDAC11 fluorometric enzyme inhibition assay, purified enzyme; settings: Table 2; purified enzyme ~1 nM
T5 construct: made in house
T5 sequence (Q96DB2 1-347): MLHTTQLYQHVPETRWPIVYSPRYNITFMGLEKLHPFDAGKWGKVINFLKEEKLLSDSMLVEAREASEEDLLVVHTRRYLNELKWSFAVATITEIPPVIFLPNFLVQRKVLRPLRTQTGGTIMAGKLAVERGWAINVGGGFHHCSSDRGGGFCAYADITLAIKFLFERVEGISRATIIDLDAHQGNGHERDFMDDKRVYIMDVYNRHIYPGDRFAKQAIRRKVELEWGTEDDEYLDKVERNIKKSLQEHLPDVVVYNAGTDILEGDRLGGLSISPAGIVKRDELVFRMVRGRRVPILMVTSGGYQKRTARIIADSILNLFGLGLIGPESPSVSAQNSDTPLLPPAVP
Protocol: as §1, §2, §3, §4, §5, §6

T2 sequence (P56524 whole entry): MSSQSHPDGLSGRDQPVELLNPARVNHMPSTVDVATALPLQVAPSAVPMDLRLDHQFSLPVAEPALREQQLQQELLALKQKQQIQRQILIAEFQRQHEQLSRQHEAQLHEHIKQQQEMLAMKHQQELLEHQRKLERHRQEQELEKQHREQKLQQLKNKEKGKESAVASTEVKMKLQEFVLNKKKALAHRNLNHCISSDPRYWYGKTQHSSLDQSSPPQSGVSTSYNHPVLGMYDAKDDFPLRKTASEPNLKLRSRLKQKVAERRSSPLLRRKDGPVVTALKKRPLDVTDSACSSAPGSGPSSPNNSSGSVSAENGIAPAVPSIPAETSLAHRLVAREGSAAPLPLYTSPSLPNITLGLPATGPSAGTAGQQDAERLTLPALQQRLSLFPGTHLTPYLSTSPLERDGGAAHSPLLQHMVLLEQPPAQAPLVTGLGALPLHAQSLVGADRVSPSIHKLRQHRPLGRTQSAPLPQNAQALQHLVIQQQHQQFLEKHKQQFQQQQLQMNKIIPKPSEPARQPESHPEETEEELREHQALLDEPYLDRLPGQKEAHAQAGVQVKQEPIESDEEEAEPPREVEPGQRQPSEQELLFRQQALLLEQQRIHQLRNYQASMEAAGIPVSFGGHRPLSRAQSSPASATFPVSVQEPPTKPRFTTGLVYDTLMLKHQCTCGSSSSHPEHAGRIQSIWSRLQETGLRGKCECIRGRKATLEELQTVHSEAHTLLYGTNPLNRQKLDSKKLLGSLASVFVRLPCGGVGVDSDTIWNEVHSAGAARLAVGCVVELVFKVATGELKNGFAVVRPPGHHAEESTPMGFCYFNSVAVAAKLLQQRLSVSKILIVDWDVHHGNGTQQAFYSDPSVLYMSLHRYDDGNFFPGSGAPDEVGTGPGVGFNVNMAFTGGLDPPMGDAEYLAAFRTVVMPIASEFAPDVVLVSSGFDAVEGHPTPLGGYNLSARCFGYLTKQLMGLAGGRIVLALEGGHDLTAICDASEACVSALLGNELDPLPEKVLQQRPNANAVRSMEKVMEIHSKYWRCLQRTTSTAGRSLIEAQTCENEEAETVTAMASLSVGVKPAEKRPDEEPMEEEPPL
T3 sequence (Q13547 whole entry): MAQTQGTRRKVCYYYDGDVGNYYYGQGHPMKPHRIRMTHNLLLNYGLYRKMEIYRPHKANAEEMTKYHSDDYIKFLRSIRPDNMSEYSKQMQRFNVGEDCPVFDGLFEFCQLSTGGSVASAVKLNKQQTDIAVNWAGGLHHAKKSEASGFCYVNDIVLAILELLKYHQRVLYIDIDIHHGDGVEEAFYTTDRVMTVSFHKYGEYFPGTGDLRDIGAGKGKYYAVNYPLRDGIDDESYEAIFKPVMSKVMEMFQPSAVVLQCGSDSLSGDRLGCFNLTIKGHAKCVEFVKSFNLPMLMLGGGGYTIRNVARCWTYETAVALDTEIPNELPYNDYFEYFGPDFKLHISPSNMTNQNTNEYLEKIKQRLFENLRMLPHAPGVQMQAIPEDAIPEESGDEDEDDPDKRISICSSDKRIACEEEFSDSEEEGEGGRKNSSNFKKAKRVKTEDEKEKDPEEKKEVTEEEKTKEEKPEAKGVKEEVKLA

| IC50 (HDAC8) [µM] | IC50 (HDAC4)/IC50 (HDAC8) (HDAC8) | IC50 (HDAC4) [µM] | IC50 (HDAC1) [µM] | IC50 (HDAC6) [µM] | IC50 (HDAC11) [µM] | Compound |
| --- | --- | --- | --- | --- | --- | --- |
| 1.3 ± 0.2 | 10.8 | 14 ± 3 | 17 ± 16 | 6.9 ± 2.5 | > 35 | CN(Cc1ccccc1)c1c(N(C)Cc2ccccc2)c(=O)c1=O [Compound 14b] |
| 1.2 ± 0.03 | 7.1 | 8.5 ± 5.3 | 7 ± 2.7 | 2.3 ± 1.6 | 25 ± 8 | CCOc1c(Nc2ccc(F)cc2)c(=O)c1=O [Compound 9b] |
| 2 ± 1 | 5.5 | 11 ± 4 | 8.1 ± 4.3 | 2.9 ± 1.3 | > 35 | O=c1c(Nc2ccc(Br)cc2)c(Nc2ccc(Br)cc2)c1=O [Compound 13c] |
| 1.8 ± 0.7 | 2.6 | 4.6 ± 0.9 | 8.3 ± 3.6 | 6.1 ± 3.5 | > 35 | O=c1c(NCc2ccccc2)c(NCc2ccccc2)c1=O [Compound 13b] |

Source: paper PMC13110267, “Fair and Square: Design, Synthesis and Biological Evaluations of Squaric Acid Derivatives as Novel HDAC8 Inhibitors” (Chemmedchem, 2026)
